Experimental data from paper PMC4547397, “A Caged Ret Kinase Inhibitor and its Effect on Motoneuron Development in Zebrafish Embryos” (Scientific Reports, 2015).
Entries after “also recorded” stand apart in the source; their conditions may differ. Like-named read-outs stand apart in the source and are kept apart here. Values belong to the compound of their own block, whether it stands above or below them.

Columns and labels:
[1] = Solubility in aqueous media / buffer; assay type: physicochemical
Human recombinant RET = molecular target: T1, Human recombinant RET (Homo sapiens, UniProt P07949); assay: In vitro (cell-free) RET kinase incubation, luminescent ADP detection; assay type: biochemical; conditions: for RET kinase activity: 1.6 μM; for IC50: read-out: IC50, RET-induced ATP turnover
T1 construct: purchased Promega; host or cells: Sf9 insect cells
Protocol: With the caged compound in hand, the ability to photocontrol the inhibition of RET kinase was assessed. For this purpose, an in vitro assay with purified RET kinase was used to measure ADP production during substrate phosphorylation. Compound 6 was added to two parallel preparations comprising RET kinase and substrate. One preparation was exposed to light (365 nm, 15 min), while the other was kept in the dark.
After adding ATP and incubating at room temperature for 30 min, the relative ATP turnover was assessed. […] For example; irradiating an administered dose of 1.6 μM 6, would modulate the RET kinase activity from 90% to 10%.
Human recombinant RET expressed in Sf9 insect cells (Specific Activity: 220 nmol^−1min^−1mg^−1), substrate (IGFlRtide), and ATP were purchased in an assay ready kit from Promega[37] (Promega Corporation, Madison WI 53711 USA) and used as received. Incubations were performed in 40 mM Tris buffer (pH 7.4, 1 vol% DMSO) supplemented with 50 μM DTT and 20 mM MgCl2 in a white flat-bottom 96-well plate. Incubation volume was 25 μL. Brief procedure; Kinase (0.8 μg/mL), substrate (40 μg/mL), ATP (10 μM) and inhibitor were combined and incubated for 30 min at room temperature in the dark, with shaking. After the kinase reaction, two detection reagents were added in a stepwise manner. The first reagent depleted the remaining (unreacted) ATP in the reaction mix. The second reagent converted the ADP produced in the kinase reaction to ATP and generated a luminescence signal using a luciferase/luciferin reaction. The light generated is proportional to the amount ADP present and, consequently, to the kinase activity. Luminescence was recorded on a BMG Labtech Fluostar Omega luminometer. All incubations were done in duplicates.
2. Fitting of dose-response data
Positive and negative control experiments with and without light exposure (15 min, 365 nm) were run in parallel to the inhibitor incubations. The positive control was identical to the inhibitor experiment but with buffer additions instead of ATP and Neurturin for the cell-free and live-cell incubation, respectively. The negative control was identical to the inhibitor experiment but with inhibitor diluent (DMSO) addition instead of inhibitor. The intensity reading from the positive control was subtracted from the corresponding value from the inhibitor incubation. This was followed by normalization to the negative control reading. The resulting luminescence intensities (I) at the applied inhibitor concentrations (C) were fitted to […]
A global, error-weighted (instrumental) fit was performed by making the top- (A2) and bottom (A1) asymptotes shared parameters for the included data sets. […]
140/2013, and followed the guidelines of the Swedish National Board for Laboratory

RET kinase (c-RET-GFRα2) = RET kinase (c-RET-GFRα2) (Homo sapiens, UniProt P07949); assay: PathHunter express c-RET-GFRα2 functional live-cell assay (neurturin stimulated); assay type: cell-based
Protocol: The photoactivation of 6 was also tested in a RET functional whole cell assay which utilizes β-galactosidase to produce a luminescent readout[24][25][26] (see Methods section for assay details). Compound 6 was added to live cells expressing RET kinase in two identical preparations, followed by 3 h preincubation at 37 °C. At this point, one preparation was exposed to light (365 nm, 15 min), while the other was kept in the dark. Again, 15 min is clearly not sufficient to complete the decaging (see above). Addition of the growth factor neurturin (required to activate the RET kinase) and incubation for 3 h at 22 °C allowed for activity-correlating signal induction using the supplemented detection reagents. […] To again exclude distortive effects of light on the cells, incubations without inhibitor were exposed to light.
PathHunter express c-RET-GFRα2 functional assay and recombinant human neurturin were purchased from DiscoveRx (DiscoveRx Corporation, Fremont CA 94538 USA) and used according to instructions. […] Incubations were performed in the provided assay buffer (1 vol% DMSO) in a white flat/clear-bottom 96-well plate. Incubation volume was 110 μL. Brief procedure; Cells were thawed and diluted to ca. 100 000 cells/mL, followed by plating and acclimatization in 37 °C, 5% CO2, humidified, environment for 48 h. Thereafter, the inhibitor was added and the plate was returned to 37 °C for 3 h. The cells were then stimulated with the GDNF-family growth factor neurturin (applied concentration: 15 ng/mL = EC80) and incubated 3 h at 22 °C in the dark. An activity-correlating luminescence signal was induced using the detection reagent provided in the kit according to the recommended protocol. Luminescence was recorded on a BMG Labtech Fluostar Omega luminometer. All incubations were done in duplicates.

[2] = test system: zebrafish embryos tg(olig2:dsRed) (ret); assay: Motoneuron development in zebrafish embryos, confocal imaging at 2 dpf; assay type: in vivo, Danio rerio
Protocol: In the light of this, we chose to investigate the decaging of 6 in the transgenic zebrafish line tg(olig2:dsRed)[33], and any effect this may have on the motoneuron development. The choice of zebrafish line is motivated by the labeling of ventral spinal cord precursor cells that produce motoneurons and oligodendrocytes, facilitating the assessment of altered motoneuron phenotypes. Transgenic zebrafish embryos were incubated in 10 μM and 50 μM solutions of 6 at 3 hours post fertilization (hpf) for 11 h. We opted for decaging at 14 hpf since primary motoneurons start to sprout growth cones at 18 hpf[36]. We hypothesized that blocking ret signalling at this time point would primarily affect axonal extension and not formation of motoneurons. After washing with fresh medium the embryos were irradiated for 15 min (365 nm). The embryos were left to develop until 2 days post fertilization (dpf) when their spinal cords were scanned with confocal imaging. […] All experimental procedures were carried out in compliance with relevant guidelines and regulations of the Swedish National Board for Laboratory Animals. The protocols were also approved by the medical ethics committee of University of Gothenburg. Zebrafish (Danio rerio) embryos of strain tg(olig2:dsRed)[32] were kept at the Institute of Neuroscience and Physiology, University of Gothenburg. Fertilized eggs were collected and kept in petri dishes containing embryo medium (EM; 5.03 mM NaCl, 0.17 mM KCl, 0.33 mM CaCl2·2H2O, 0.33 mM MgCl2·6H2O), in darkness, in an incubator at 28.5 °C. Eggs were incubated in either 6 or 1% DMSO from 3 hours post-fertilization (hpf) and then dechorinated at 9 hpf to allow for better compound uptake. After 11 hours of incubation, 14 hpf embryos were washed three times with EM and moved to clean petri dishes containing 1-phenyl 2-thiourea (PTU, 0,003%, Sigma) and diluted in EM to prevent pigmentation. Embryos were irradiated for 15 min (365 nm) and then kept in the incubator until time of confocal imaging. A second set of animals were incubated in 6 from 14 hpf to 24 hpf, after which animals were washed and illuminated in the same way as the first group. Prior to imaging at 2 days post-fertilization (dpf), the embryos were anesthetized using 0.02% tricaine methanesulfonate (MS-222) diluted in EM and embedded in low-melting agarose. The imaging was performed on a ZEISS LSM710 confocal microscope at the Centre for Cellular Imaging at the Sahlgrenska Academy. Stacks of labeled spinal cord neurons were collected using a 561 nm laser. Maximal intensity pictures of spinal cord hemisegments and axonal phenotypes were analyzed using ImageJ (U. S. National Institutes of Health, Bethesda, Maryland, USA) according to Abramsson et al. 2013[38].

[3] = Light-induced decaging (365 nm) monitored by HPLC; assay type: physicochemical
Protocol: Indeed, this compound was soluble in aqueous buffer (1 vol% DMSO) up to 100 μM. Photoinduced cleavage of 6 was readily achieved with 365 nm light, as monitored by HPLC.
(§1) Steady state absorption measurements (for thermal stability assessment of 6, see Fig. S3) were carried out on a Cary Bio 50 UV/vis spectrometer equipped with a Varian PCB 1500 Water Peltier System thermostat for temperature control. Sample volume was 3.0 mL. […] Irradiation in the assays was accomplished by placing the lamp directly on top of the sample plates/dishes. It should be noted that the exact light conditions in the assays may differ slightly depending on the type of plates/dishes used (see Methods sections below for plate specifications).
Figure S1. Light-induced decaging of 6. A Tris buffer solution (1vol% DMSO) containing 100 µM 6 was successively subjected to t = 0, 3, 6, 9, 12, 15, 30, 60, and 90 min of 365 nm light. After each irradiation period, an aliquot was drawn and analyzed using HPLC with UV detection. The integrated areas for the chromatogram peaks associated with 1 (hollow squares) and 6 (solid circles) were fitted globally (shared time constant) to a first order exponential (solid line), yielding a time constant of τ = 9.6 min for the decaging of 6. It should be noted that the individually extracted time constants for […]
from the globally fitted value.
(§2) (1 picture or pasted object on this page, not shown here)

[4] = Thermal stability in aqueous buffer by UV/vis absorption; assay type: physicochemical; conditions: 48 h, 37 °C, 10 mM phosphate buffer pH 7.0, 1 vol% DMSO
Protocol: as §1
5.3 Thermal stability of 6 in 10 mM phosphate buffer, pH 7.
Figure S3. UV/vis absorption spectra of 6 in 10 mM phosphate buffer (pH 7.0, 1 vol% DMSO) at
t = 0 (solid black line), and after t = 48 h in 37 °C (dashed red line). Inset: Absorption at λ = 321 nm as
as §2

RET = test system: RET; design: method as in PMID 22559926; conditions: cited from earlier work
[5] = test system: GDNF-induced RET phosphorylation of ERK1/2; design: method as in PMID 22559926; conditions: cited from earlier work
[6] = test system: RET/PTC1 expressing TPC1 cells; design: method as in PMID 25409876; conditions: cited from earlier work
8505C cells = test system: 8505C cells; design: method as in PMID 25409876; conditions: cited from earlier work
C643 cells = test system: C643 cells; design: method as in PMID 25409876; conditions: cited from earlier work
MCF7 cells = test system: MCF7 cells; design: method as in PMID 25409876; conditions: cited from earlier work
[7] = test system: cell lines used (TPC1, 8505C, C643, MCF7); design: method as in PMID 25409876; conditions: any of the cell lines used; cited from earlier work
[8] = 100 µM 6 in Tris buffer 1 vol% DMSO

Sequence of RET kinase (c-RET-GFRα2) (P07949 29-1114): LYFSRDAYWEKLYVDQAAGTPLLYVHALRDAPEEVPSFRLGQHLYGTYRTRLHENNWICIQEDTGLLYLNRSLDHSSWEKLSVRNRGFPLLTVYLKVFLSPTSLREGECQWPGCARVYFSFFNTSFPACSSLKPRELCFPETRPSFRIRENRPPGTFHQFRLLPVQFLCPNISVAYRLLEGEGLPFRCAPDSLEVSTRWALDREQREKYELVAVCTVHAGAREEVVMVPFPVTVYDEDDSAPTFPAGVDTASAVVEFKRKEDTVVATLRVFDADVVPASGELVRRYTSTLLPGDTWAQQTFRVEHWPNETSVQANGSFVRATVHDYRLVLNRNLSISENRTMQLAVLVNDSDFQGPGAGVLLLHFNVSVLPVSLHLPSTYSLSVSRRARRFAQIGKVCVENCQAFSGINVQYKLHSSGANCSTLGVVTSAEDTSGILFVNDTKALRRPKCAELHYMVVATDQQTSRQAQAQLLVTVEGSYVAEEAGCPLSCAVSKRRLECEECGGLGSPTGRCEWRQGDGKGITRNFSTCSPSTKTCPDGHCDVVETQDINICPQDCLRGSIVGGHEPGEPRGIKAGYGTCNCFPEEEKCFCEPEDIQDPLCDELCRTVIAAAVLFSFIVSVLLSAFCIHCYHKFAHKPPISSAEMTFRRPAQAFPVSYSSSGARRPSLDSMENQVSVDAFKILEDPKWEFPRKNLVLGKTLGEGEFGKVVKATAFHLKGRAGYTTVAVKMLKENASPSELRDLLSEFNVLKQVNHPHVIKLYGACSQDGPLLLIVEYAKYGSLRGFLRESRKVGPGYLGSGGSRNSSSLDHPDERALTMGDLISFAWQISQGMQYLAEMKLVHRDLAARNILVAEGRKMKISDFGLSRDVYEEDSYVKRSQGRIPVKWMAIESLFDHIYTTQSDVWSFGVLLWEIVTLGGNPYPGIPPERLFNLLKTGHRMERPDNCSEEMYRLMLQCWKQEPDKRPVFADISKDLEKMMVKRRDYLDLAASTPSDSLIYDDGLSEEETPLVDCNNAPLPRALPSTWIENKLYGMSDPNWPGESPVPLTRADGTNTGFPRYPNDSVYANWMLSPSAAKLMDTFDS
T1 sequence (P07949 29-1114): as above

solubility in aqueous media [1]: insufficiently soluble
SMILES: COc1cc(COC(=O)Nc2ncnc3c2c(C#Cc2ccccc2)nn3C(C)C)c([N+](=O)[O-])cc1OC [compound 2]

RET kinase activity (Human recombinant RET; after irradiation): 10% | RET kinase activity (Human recombinant RET; before irradiation): 90% | increase of inhibitory capability upon light exposure (Human recombinant RET; irradiated (365 nm, 15 min) vs non-irradiated): 12 fold | IC50 (Human recombinant RET; non-irradiated (kept in the dark)): 6.8 µM | IC50 (RET kinase (c-RET-GFRα2); irradiated (365 nm, 15 min)): 8.7 µM | IC50, live-cell RET activity (RET kinase (c-RET-GFRα2); non-irradiated): no IC50 value could be obtained | partial inhibition of RET activity in live cells (RET kinase (c-RET-GFRα2); non-irradiated, at concentrations higher than 6 μM): ca. 40% | solubility ([1]; kinetic from dmso stock, aqueous buffer, 1 vol% DMSO): ≤ 100 µM
SMILES: COc1cc(COC(=O)Nc2ncnc3c2c(C#Cc2ccccc2)nn3C(C)C)c([N+](=O)[O-])cc1OCC(=O)O [compound 6, 2-(4-((((1-isopropyl-3-(phenylethynyl)-1H-pyrazolo[3,4-d]pyrimidin-4-yl)carbamoyl)oxy)methyl)-2-methoxy-5-nitrophenoxy)acetic acid]
motoneuron axonal phenotype ([2]; 10 μM, irradiated 15 min at 14 hpf): virtually no effect | motoneuron axonal phenotype ([2]; 50 μM from 3 hpf for 11 h, irradiated 15 min 365 nm at 14 hpf, imaged 2 dpf): motoneurons with shortened and malformed axons | motoneuron axonal phenotype ([2]; irradiated at 24 hpf after 10 h of incubation and wash): similar, but less severe, axonal phenotypes | motoneuron axonal phenotype ([2]; non-irradiated embryos (50 μM)): did not show any phenotypic anomalies | exposure time required for complete (>99%) decaging [3]: at least 45 minutes | time constant τ, consumption of 6 (individual fit) [3, 8]: 8.7 min | time constant τ, liberation of 1 (individual fit) [3, 8]: 13.1 min | time constant τ of decaging, global fit (first order) ([3]; 1.5 mW/cm^2, 100 µM in Tris buffer 1 vol% DMSO): 9.6 min | thermal stability (absorption spectrum) [4]: no changes in the absorption spectrum were detected; also recorded: No signs of degradation

SMILES: COc1cc(COC(=O)Nc2ncnc3c2c(C#Cc2ccccc2)nn3CCO)c([N+](=O)[O-])cc1OC [compound 3]
solubility in aqueous media [1]: too low to be practical for biological assays

IC50 (Human recombinant RET; free inhibitor, no irradiation, 10 μM ATP, 30 min room temperature): 0.072 µM | IC50 (RET kinase (c-RET-GFRα2); free inhibitor, no irradiation, 3 h preincubation 37 °C): 0.47 µM
SMILES: CC(C)n1nc(C#Cc2ccccc2)c2c(N)ncnc21 [compound 1]
motoneuron axonal phenotype ([2]; 10 μM during development): phenotype was also observed | motoneuron axonal phenotype ([2]; 50 μM for 90 min at 6 hpf): phenotype was also observed | in vitro activity against RET (RET): low nM range | selectivity profile toward RET (RET): partial inhibition of only six other tyrosine kinases | effect on GDNF-induced RET phosphorylation of ERK1/2 [5]: inhibitory effect | MAPK signalling and proliferation [6]: inhibited | MAPK signalling and proliferation (8505C cells): not | MAPK signalling and proliferation (C643 cells): not | PI3K/Akt and MAPK signalling and estrogen receptor α (ERα) phosphorylation (MCF7 cells): inhibited | proliferation (MCF7 cells): inhibit proliferation to a similar degree as tamoxifen | cytotoxicity [7]: No cytotoxicity was observed
